In patent publication US20110152236A1 (SANOFI-AVENTIS, priority 2008, published 2011):
Where two headings read alike, the source gives them in different places.

What was measured:
human CB1 receptor = target: T1, human CB1 receptor (Homo sapiens, UniProt P21554); assay: intracellular cyclic AMP test in U373MG cells (HTRF cAMP Dynamic Kit); type: cell-based
T1 construct: U373MG cells naturally expressing the human CB1 receptor; endogenous in cells; host or cells: U373MG cells
Description: The compounds according to the invention were the subject of pharmacological tests for determining the activity with respect to human cannabinoid CB1-type receptors. The efficacy of the compounds of formula (I) was determined in a functional test which measures cannabinoid CB1 receptor activity (intracellular cyclic AMP test). The test for detecting intracellular cyclic AMP in U373MG cells naturally expressing the human CB1 receptor was carried out as described in the following reference: Bouaboula et al., 1995, J. Biol. Chem. 270:13973-13980. The HTRF cAMP Dynamic Kit from CisBio was used to quantify the intracellular cyclic AMP. In this test, the IC50 values are between 0.001 μM and 2 μM.

cannabinoid CB1 receptor = target: T2, cannabinoid CB1 receptor (Mus musculus, UniProt P47746); assay: model of inhibition of gastrointestinal transit induced by racemic CP55,940 in mice; type: in vivo; settings: 1 mg/kg per os; 3 hours after administration of the product; CP55,940 0.15 mg/kg ip; male CD1 mice
T2 construct: from tissue; host or cells: whole animal (mice; male CD1 mice in the gastrointestinal transit model)
T2 sequence (P47746 whole entry): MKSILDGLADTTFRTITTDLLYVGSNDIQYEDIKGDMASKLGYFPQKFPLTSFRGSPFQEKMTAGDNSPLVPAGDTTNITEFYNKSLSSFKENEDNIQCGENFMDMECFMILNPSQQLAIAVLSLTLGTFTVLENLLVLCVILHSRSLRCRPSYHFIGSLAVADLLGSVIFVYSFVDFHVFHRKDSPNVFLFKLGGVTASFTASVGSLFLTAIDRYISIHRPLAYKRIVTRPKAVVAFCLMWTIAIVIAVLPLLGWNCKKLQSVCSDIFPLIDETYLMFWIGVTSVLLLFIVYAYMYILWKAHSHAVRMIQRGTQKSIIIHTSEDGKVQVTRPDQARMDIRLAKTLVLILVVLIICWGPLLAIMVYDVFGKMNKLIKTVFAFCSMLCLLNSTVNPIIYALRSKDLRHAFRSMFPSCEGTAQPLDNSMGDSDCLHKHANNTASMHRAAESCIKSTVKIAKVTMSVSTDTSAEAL
Description: The antagonistic activity of the compounds was also shown by means of the model of inhibition of gastrointestinal transit induced by racemic CP55,940 (1RS,3RS,4RS-3-[hydroxy-2-(1,1-dimethylheptyl)phenyl]-4-(3-hydroxypropyl)cyclohexan-1-ol) in mice, according to the method described by Rinaldi-Carmona et al., J. Pharmacol, Exp. Ther. 2004, 310, 905-914. Briefly, male CD1 mice receive the test product per os 30 minutes or 2 hours before administration of the racemic CP55,940 agonist (1RS,3RS,4RS-3-[hydroxy-2-(1,1-dimethylheptyl)phenyl]-4-(3-hydroxypropyl)cyclohexan-1-ol) (0.15 mg/kg ip in 10% Cremophor). After a further 30 minutes, the animals receive a charcoal bolus po. Thirty minutes later, the animals are euthanized (CO2/O2) and the intestine is dissected. The progression of the charcoal bolus in the intestine is expressed as percentage of the total length of the intestine.

[1] = U373MG cells naturally expressing the human CB1 receptor, intracellular cyclic AMP, read-out: IC50

T1 sequence (P21554 whole entry): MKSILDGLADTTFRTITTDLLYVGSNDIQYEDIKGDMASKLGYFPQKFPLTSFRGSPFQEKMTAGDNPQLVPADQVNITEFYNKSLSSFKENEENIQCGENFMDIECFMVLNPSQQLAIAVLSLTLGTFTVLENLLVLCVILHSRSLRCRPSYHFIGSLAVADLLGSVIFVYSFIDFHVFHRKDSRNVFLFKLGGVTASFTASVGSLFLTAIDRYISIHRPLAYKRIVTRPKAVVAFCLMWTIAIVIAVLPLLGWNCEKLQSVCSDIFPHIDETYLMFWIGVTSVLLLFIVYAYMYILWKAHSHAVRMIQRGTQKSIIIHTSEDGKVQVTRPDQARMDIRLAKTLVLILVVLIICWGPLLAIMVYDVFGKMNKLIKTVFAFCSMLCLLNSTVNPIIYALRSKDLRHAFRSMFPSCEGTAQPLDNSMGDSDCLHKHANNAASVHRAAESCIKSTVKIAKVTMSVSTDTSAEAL

SMILES: CS(=O)(=O)N(c1cccc(C(=O)NCc2cc(O)no2)c1)C1CN(C(c2ccc(Cl)cc2)c2ccc(Cl)cc2)C1
- melting point: 209 °C

SMILES: CS(=O)(=O)N(c1cccc(C(=O)Nc2nccs2)c1)C1CN(C(c2ccc(Cl)cc2)c2ccc(Cl)cc2)C1 [Compound 1, 3-[{1-[Bis(4-chlorophenyl)methyl]azetidin-3-yl}(methylsulphonyl)amino]-N-(1,3-thiazol-2-yl)benzamide]
- melting point: 244 °C

SMILES: Cn1cc(O)nc1NC(=O)c1cccc(N(C2CN(C(c3ccc(Cl)cc3)c3ccc(Cl)cc3)C2)S(C)(=O)=O)c1 [Compound 4, 3-[{1-[bis(4-chlorophenyl)methyl]azetidin-3-yl}(methylsulphonyl)amino]-N-(4-hydroxy-1-methyl-1H-imidazol-2-yl)benzamide]
- melting point: 134 °C

SMILES: CS(=O)(=O)N(c1cccc(C(=O)Nc2nnc(C3CC3)s2)c1)C1CN(C(c2ccc(Cl)cc2)c2ccc(Cl)cc2)C1 [Compound 6, 3-[{1-[bis(4-chlorophenyl)methyl]azetidin-3-yl}(methylsulphonyl)amino]-N-(5-cyclopropyl-1,3,4-thiadiazol-2-yl)benzamide]
- melting point: 226 °C

SMILES: CS(=O)(=O)N(c1cccc(C(=O)Nc2ncccn2)c1)C1CN(C(c2ccc(Cl)cc2)c2ccc(Cl)cc2)C1 [Compound 8, 3-[{1-[bis(4-chlorophenyl)methyl]azetidin-3-yl}(methylsulphonyl)amino]-N-(pyrimidin-2-yl)-benzamide]
- melting point: 137 °C

SMILES: CS(=O)(=O)N(c1cccc(C(=O)Nc2cc[nH]n2)c1)C1CN(C(c2ccc(Cl)cc2)c2ccc(Cl)cc2)C1 [Compound 9, 3-[{1-[bis(4-chlorophenyl)methyl]azetidin-3-yl}(methylsulphonyl)amino]-N-(1H-pyrazol-3-yl)-benzamide]
- melting point: 150 °C

SMILES: CS(=O)(=O)N(c1cccc(C(=O)Nc2nonc2N)c1)C1CN(C(c2ccc(Cl)cc2)c2ccc(Cl)cc2)C1 [Compound 10, N-(4-amino-1,2,5-oxadiazol-3-yl)-3-[{1-[bis(4-chlorophenyl)methyl]azetidin-3-yl}(methylsulphonyl)amino]benzamide]
- IC50 (human CB1 receptor; [1]): 40 nM
- melting point: 255 °C

SMILES: CS(=O)(=O)N(c1cccc(C(=O)Nc2cc(O)ccn2)c1)C1CN(C(c2ccc(Cl)cc2)c2ccc(Cl)cc2)C1 [Compound 11, 3-[{1-[bis(4-chlorophenyl)methyl]azetidin-3-yl}(methylsulphonyl)amino]-N-(4-hydroxypyridin-2-yl)benzamide]
- IC50 (human CB1 receptor; [1]): 170 nM
- melting point: 208 °C

SMILES: CS(=O)(=O)N(c1cccc(C(=O)Nc2n[nH]cc2C(N)=O)c1)C1CN(C(c2ccc(Cl)cc2)c2ccc(Cl)cc2)C1 [Compound 12, 3-[({3-[{1-[bis(4-chlorophenyl)methyl]azetidin-3-yl}(methylsulphonyl)amino]phenyl}carbonyl)-amino]-1H-pyrazole-4-carboxamide]
- melting point: 174 °C

SMILES: CS(=O)(=O)N(c1cccc(C(=O)NCc2nc[nH]n2)c1)C1CN(C(c2ccc(Cl)cc2)c2ccc(Cl)cc2)C1 [Compound 13, 3-[{1-[Bis(4-chlorophenyl)methyl]azetidin-3-yl}(methylsulphonyl)amino]-N-(1H-1,2,4-triazol-3-ylmethyl)benzamide]
- melting point: 210 °C

SMILES: CS(=O)(=O)N(c1cccc(C(=O)NCc2cc[nH]n2)c1)C1CN(C(c2ccc(Cl)cc2)c2ccc(Cl)cc2)C1 [Compound 14, 3-[{1-[Bis(4-chlorophenyl)methyl]azetidin-3-yl}(methylsulphonyl)amino]-N-(1H-pyrazol-3-ylmethyl)benzamide]
- melting point: 224 °C

SMILES: CS(=O)(=O)N(c1cccc(C(=O)NCCn2cccn2)c1)C1CN(C(c2ccc(Cl)cc2)c2ccc(Cl)cc2)C1 [Compound 15, 3-[{1-[bis(4-chlorophenyl)methyl]azetidin-3-yl}(methylsulphonyl)amino]-N[2-(1H-pyrazol-1-yl)ethyl]benzamide]
- IC50 (human CB1 receptor; [1]): 134 nM
- melting point: 264 °C

SMILES: CS(=O)(=O)N(c1cccc(C(=O)NCCc2ncccn2)c1)C1CN(C(c2ccc(Cl)cc2)c2ccc(Cl)cc2)C1 [Compound 16, 3-[{1-[bis(4-chlorophenyl)methyl]azetidin-3-yl}(methylsulphonyl)amino]-N-[2-(pyrimidin-2-yl)-ethyl]benzamide]
- melting point: 120 °C

SMILES: CS(=O)(=O)N(c1cc(F)cc(C(=O)Nc2ccon2)c1)C1CN(C(c2ccc(Cl)cc2)c2ccc(Cl)cc2)C1 [Compound 17, 3-[{1-[bis(4-chlorophenyl)methyl]azetidin-3-yl}(methylsulphonyl)amino]-5-fluoro-N-(isoxazol-3-yl)benzamide]
- melting point: 219 to 221 °C

SMILES: CS(=O)(=O)N(c1cc(F)cc(C(=O)Nc2ccccn2)c1)C1CN(C(c2ccc(Cl)cc2)c2ccc(Cl)cc2)C1 [Compound 18, 3-[{1-[bis(4-chlorophenyl)methyl]azetidin-3-yl}(methylsulphonyl)amino]-5-fluoro-N-(pyridin-2-yl)benzamide]
- IC50 (human CB1 receptor; [1]): 6 nM

SMILES: Cc1cc(NC(=O)c2cc(F)cc(N(C3CN(C(c4ccc(Cl)cc4)c4ccc(Cl)cc4)C3)S(C)(=O)=O)c2)no1 [Compound 21, 3-[{1-[Bis(4-chlorophenyl)methyl]azetidin-3-yl)(methylsulphonyl)amino]-5-fluoro-N-(5-methylisoxazol-3-yl)benzamide]
- melting point: 222 to 224 °C

SMILES: CS(=O)(=O)N(c1cc(F)cc(C(=O)Nc2cnoc2)c1)C1CN(C(c2ccc(Cl)cc2)c2ccc(Cl)cc2)C1 [Compound 24, 3-[{1-[bis(4-chlorophenyl)methyl]azetidin-3-yl}(methylsulphonyl)amino]-5-fluoro-N-(isoxazol-4-yl)benzamide]
- melting point: 234 to 236 °C

SMILES: Cc1cc(NC(=O)c2cc(F)cc(N(C3CN(C(c4ccc(Cl)cc4)c4ccc(Cl)cc4)C3)S(C)(=O)=O)c2)on1 [Compound 26, 3-[{1-[bis(4-chlorophenyl)methyl]azetidin-3-yl}(methylsulphonyl)amino]-5-fluoro-N-(3-methylisoxazol-5-yl)benzamide]
- melting point: 224 to 226 °C

SMILES: Cc1ccnc(NC(=O)c2cc(F)cc(N(C3CN(C(c4ccc(Cl)cc4)c4ccc(Cl)cc4)C3)S(C)(=O)=O)c2)c1 [Compound 27, 3-[{1-[bis(4-chlorophenyl)methyl]azetidin-3-yl}(methylsulphonyl)amino]-5-fluoro-N-(4-methylpyridin-2-yl)benzamide]
- melting point: 184 to 186 °C

SMILES: Cc1cccc(NC(=O)c2cc(F)cc(N(C3CN(C(c4ccc(Cl)cc4)c4ccc(Cl)cc4)C3)S(C)(=O)=O)c2)n1 [Compound 28, 3-[{1-[bis(4-chlorophenyl)methyl]azetidin-3-yl}(methylsulphonyl)amino]-5-fluoro-N-(6-methylpyridin-2-yl)benzamide]
- melting point: 176 to 178 °C

SMILES: CS(=O)(=O)N(c1cccc(C(=O)Nc2ccc(N)nc2)c1)C1CN(C(c2ccc(Cl)cc2)c2ccc(Cl)cc2)C1 [Compound 30, N-(6-aminopyridin-3-yl)-3-[{1-[bis(4-chlorophenyl)methyl]azetidin-3-yl}(methylsulphonyl)amino]benzamide]
- melting point: 210 °C

SMILES: CS(=O)(=O)N(c1cccc(C(=O)Nc2nc(N)n[nH]2)c1)C1CN(C(c2ccc(Cl)cc2)c2ccc(Cl)cc2)C1 [Compound 31, N-(3-amino-1H-1,2,4-triazol-5-yl)-3-[{1-[bis(4-chlorophenyl)methyl]azetidin-3-yl}(methylsulphonyl)amino]benzamide]
- melting point: 222 °C

SMILES: CS(=O)(=O)N(c1cccc(C(=O)NCc2nn[nH]n2)c1)C1CN(C(c2ccc(Cl)cc2)c2ccc(Cl)cc2)C1 [Compound 33, 3-[{1-[bis(4-chlorophenyl)methyl]azetidin-3-yl}(methylsulphonyl)amino]-N-(2H-tetrazol-5-ylmethyl)benzamide]
- melting point: 124 °C

SMILES: N#Cc1ccnc(NC(=O)c2cc(F)cc(NS(=O)(=O)CC3CN(C(c4ccc(Cl)cc4)c4ccc(Cl)cc4)C3)c2)c1 [Compound 34, 3-({1-[bis(4-chlorophenyl)methyl]azetidin-3-yl}methylsulphonylamino)-N-(4-cyanopyridin-2-yl)-5-fluorobenzamide]
- melting point: 165 °C

SMILES: CS(=O)(=O)N(c1cc(F)cc(C(=O)Nc2cc(C#N)ccn2)c1)C1CN(C(c2ccc(Cl)cc2)c2ccc(Cl)cc2)C1 [Compound 34]
- IC50 (human CB1 receptor): 20 nM
- percentages of inhibition (cannabinoid CB1 receptor): 46%

SMILES: CC(NC(=O)c1cc(F)cc(N(C2CN(C(c3ccc(Cl)cc3)c3ccc(Cl)cc3)C2)S(C)(=O)=O)c1)c1ccccn1 (stereo not drawn) [Compound 39]
- IC50 (human CB1 receptor): 33 nM
- percentages of inhibition (cannabinoid CB1 receptor): 66%

SMILES: CS(=O)(=O)N(c1cc(F)cc(C(=O)NCc2ccc(=O)[nH]c2)c1)C1CN(C(c2ccc(Cl)cc2)c2ccc(Cl)cc2)C1 [Compound 47]
- IC50 (human CB1 receptor): 9 nM
- percentages of inhibition (cannabinoid CB1 receptor): 68%
